Results taken from paper PMC10945556, “Design, Synthesis, and Antifungal Activity of 3-Substituted-2(5H)-Oxaboroles” (ACS Medicinal Chemistry Letters, 2024).
In brackets after ≈: the same amount, converted by molar mass.

Assays:
T. mentagrophytes = experiment: MIC, dose-dependent solid media assay; assay type: cell-based, Trichophyton mentagrophytes
P. chrysogenum = experiment: MIC, dose-dependent solid media assay; assay type: cell-based, Penicillium chrysogenum
A. flavus = experiment: MIC, dose-dependent solid media assay; assay type: cell-based, Aspergillus flavus
C. albicans = experiment: MIC, microbroth dilution; assay type: cell-based, Candida albicans
S. cerevisiae = experiment: MIC, microbroth dilution; assay type: cell-based, Saccharomyces cerevisiae
B. cereus = experiment: MIC, microbroth dilution; assay type: cell-based, Bacillus cereus
[1] = tested on: Methicillin resistant Staphylococcus aureus; experiment: MIC, microbroth dilution; assay type: cell-based; conditions: S. aureus (MRSA)
P. aeruginosa = experiment: MIC, microbroth dilution; assay type: cell-based, Pseudomonas aeruginosa
E. coli = experiment: MIC, microbroth dilution; assay type: cell-based, Escherichia coli
[2] = Trichophyton mentagrophytes, value in parentheses
[3] = Penicillium chrysogenum, value in parentheses
[4] = Aspergillus flavus, value in parentheses
[5] = Candida albicans, value in parentheses
[6] = Saccharomyces cerevisiae, value in parentheses
[7] = Bacillus cereus, value in parentheses
[8] = Staphylococcus aureus, value in parentheses
[9] = Pseudomonas aeruginosa, value in parentheses
[10] = Escherichia coli, value in parentheses

Row | SMILES | MIC (T. mentagrophytes; Trichophyton mentagrophytes) | MIC (T. mentagrophytes; [2]) | MIC (P. chrysogenum; Penicillium chrysogenum) | MIC (P. chrysogenum; [3]) | MIC (A. flavus; Aspergillus flavus) | MIC (A. flavus; [4]) | MIC (C. albicans; Candida albicans) | MIC (C. albicans; [5]) | MIC (S. cerevisiae; Saccharomyces cerevisiae) | MIC (S. cerevisiae; [6]) | MIC (B. cereus; Bacillus cereus) | MIC (B. cereus; [7]) | MIC ([1]; Staphylococcus aureus) | MIC [1, 8] | MIC (P. aeruginosa; Pseudomonas aeruginosa) | MIC (P. aeruginosa; [9]) | MIC (E. coli; Escherichia coli) | MIC (E. coli; [10]) | also measured
1 | OB1OCc2cc(F)ccc21 [Compound 1, tavaborole, reference compound] | 0.78 µg/mL | 5.14 µM | 1 ± 0.3 µg/mL | 6.58 µM | 0.78 µg/mL | 5.14 µM | 2.3 ± 0.8 µg/mL | 15.1 µM | 0.26 ± 0.06 µg/mL | 1.71 µM | > 50 µg/mL | > 329 µM | ~50 µg/mL | > 329 µM | > 50 µg/mL | > 329 µM | 17 ± 4 µg/mL | 112 µM | 
2 | COc1ccccc1C1=CCOB1O [Compound 6p] | > 50 µg/mL | > 263 µM | > 50 µg/mL | > 263 µM | > 50 µg/mL | > 263 µM | > 50 µg/mL | > 263 µM | > 50 µg/mL | > 263 µM | > 50 µg/mL | > 263 µM | > 50 µg/mL | > 263 µM | > 50 µg/mL | > 263 µM | > 50 µg/mL | > 263 µM | 
3 | OB1OCC=C1c1cccc(F)c1 [Compound 6c] | 50 µg/mL | 281 µM | 25 µg/mL | 140 µM | 50 µg/mL | 281 µM | > 50 µg/mL | > 281 µM | 10.4 ± 2 µg/mL | 58.4 µM | > 50 µg/mL | > 281 µM | > 50 µg/mL | > 281 µM | > 50 µg/mL | > 281 µM | > 50 µg/mL | > 281 µM | 
4 | OB1OCC=C1c1ccccc1F [Compound 6d] | > 50 µg/mL | > 281 µM | 25 µg/mL | 140 µM | > 50 µg/mL | > 281 µM | > 50 µg/mL | > 281 µM | 21 ± 4 µg/mL | 118 µM | > 50 µg/mL | > 281 µM | > 50 µg/mL | > 281 µM | > 50 µg/mL | > 281 µM | > 50 µg/mL | > 281 µM | 
5 | C[C@@H]1C[C@@H]([C@H](O)CC2CC(=O)NC(=O)C2)C(=O)[C@@H](C)C1 [Cycloheximide, reference compound] | > 50 µg/mL | > 178 µM | 12.5 µg/mL | 44.4 µM | > 50 µg/mL | > 178 µM | > 50 µg/mL | > 178 µM | 1.56 µg/mL | 5.54 µM | > 50 µg/mL | > 178 µM | > 50 µg/mL | > 178 µM | > 50 µg/mL | > 178 µM | > 50 µg/mL | > 178 µM | 
6 | Cc1cc(F)cc(C2=CCOB2O)c1 [Compound 6k] | 42 ± 8 µg/mL | 219 µM | 12.5 µg/mL | 65.1 µM | 42 ± 8 µg/mL | 219 µM | > 50 µg/mL | > 260 µM | 12.5 µg/mL | 65.1 µM | > 50 µg/mL | > 260 µM | > 50 µg/mL | > 260 µM | > 50 µg/mL | > 260 µM |  | > 260 µM | 
7 | COc1ccc(C2=CCOB2O)cc1 [Compound 6n] | > 50 µg/mL | > 263 µM | > 50 µg/mL | > 263 µM | > 50 µg/mL | > 263 µM | > 50 µg/mL | > 263 µM | > 50 µg/mL | > 263 µM | > 50 µg/mL | > 263 µM | > 50 µg/mL | > 263 µM | > 50 µg/mL | > 263 µM | > 50 µg/mL | > 263 µM | 
8 | COc1cccc(C2=CCOB2O)c1 [Compound 6o] | > 50 µg/mL | > 263 µM | 50 µg/mL | 263 µM | > 50 µg/mL | > 263 µM | > 50 µg/mL | > 263 µM | 50 µg/mL | 263 µM | > 50 µg/mL | > 263 µM | > 50 µg/mL | > 263 µM | > 50 µg/mL | > 263 µM | > 50 µg/mL | > 263 µM | 
9 | OB1OCC=C1c1cccc(I)c1 [Compound 6l] | 25 µg/mL | 87.4 µM | 6.25 µg/mL | 21.9 µM | 25 µg/mL | 87.4 µM | > 50 µg/mL | > 175 µM | > 50 µg/mL | > 175 µM | > 50 µg/mL | > 175 µM | > 50 µg/mL | > 175 µM | > 50 µg/mL | > 175 µM | > 50 µg/mL | > 175 µM | 
10 | OB1OCC=C1c1ccccc1Br [Compound 6j] | > 50 µg/mL | > 210 µM | > 50 µg/mL | > 210 µM | > 50 µg/mL | > 210 µM | > 50 µg/mL | > 210 µM | > 50 µg/mL | > 210 µM | > 50 µg/mL | > 210 µM | > 50 µg/mL | > 210 µM | > 50 µg/mL | > 210 µM | > 50 µg/mL | > 210 µM | 
11 | C[C@@H]1[C@H](O)[C@@H](C)/C=C/C=C/CC/C=C/C=C/C=C/C=C/C(O[C@H]2O[C@H](C)[C@@H](O)[C@H](N)[C@@H]2O)CC2O[C@](O)(CC(O)C(O)CCC(O)CC(O)CC(O)CC(=O)O[C@H]1C)CC(O)C2C(=O)O (some centres unmarked) [Nystatin, reference compound] |  |  |  |  |  |  |  |  |  |  |  |  |  |  |  |  |  |  | MIC TM (T. mentagrophytes): 3.13 ± 0 µg/mL (≈ 3.38 µM); MIC (T. mentagrophytes; value in parentheses): 3.38 µM; MIC PC (P. chrysogenum): 1.56 ± 0 µg/mL (≈ 1.68 µM); MIC (P. chrysogenum; value in parentheses): 1.68 µM; MIC AF (A. flavus): 2.6 ± 0.5 µg/mL (≈ 2.81 µM); MIC (A. flavus; value in parentheses): 2.81 µM; MIC CA (C. albicans): 0.78 ± 0 µg/mL (≈ 0.842 µM); MIC (C. albicans; value in parentheses): 0.84 µM; MIC SC (S. cerevisiae): 1.56 ± 0 µg/mL (≈ 1.68 µM); MIC (S. cerevisiae; value in parentheses): 1.68 µM; MIC BC (B. cereus): > 50 µg/mL; MIC (B. cereus; value in parentheses): > 54.0 µM; MIC SA [1]: > 50 µg/mL; MIC ([1]; value in parentheses): > 54.0 µM; MIC PA (P. aeruginosa): > 50 µg/mL; MIC (P. aeruginosa; value in parentheses): > 54.0 µM; MIC EC (E. coli): > 50 µg/mL; MIC (E. coli; value in parentheses): > 54.0 µM
12 | OB1OCC=C1c1ccccc1 [Compound 6a] | > 50 µg/mL | > 313 µM | 50 µg/mL | 313 µM | > 50 µg/mL | > 313 µM | > 50 µg/mL | > 313 µM | 6.25 µg/mL | 39.1 µM | > 50 µg/mL | 313 µM | > 50 µg/mL | > 313 µM | > 50 µg/mL | > 313 µM | > 50 µg/mL | > 313 µM | 
13 | OB1OCC=C1c1ccc(OC(F)(F)F)cc1 [Compound 6m] | 50 µg/mL | 205 µM | 12.5 µg/mL | 51.2 µM | 50 µg/mL | 205 µM | > 50 µg/mL | > 205 µM | 29 ± 11 µg/mL | 119 µM | > 50 µg/mL | > 205 µM | > 50 µg/mL | > 205 µM | > 50 µg/mL | > 205 µM | > 50 µg/mL | > 205 µM | 
14 | Cc1ccccc1C1=CCOB1O [Compound 6v] | > 50 µg/mL | > 287 µM | > 50 µg/mL | > 287 µM | > 50 µg/mL | > 287 µM | > 50 µg/mL | > 287 µM | > 50 µg/mL | > 287 µM | > 50 µg/mL | > 287 µM | > 50 µg/mL | > 287 µM | > 50 µg/mL | > 287 µM | > 50 µg/mL | > 287 µM | 
15 | OB1OCC=C1c1cccc(Cl)c1 [Compound 6f] | 25 µg/mL | 129 µM | 12.5 µg/mL | 64.4 µM | 25 µg/mL | 129 µM | > 50 µg/mL | > 258 µM | 21 ± 4 µg/mL | 108 µM | > 50 µg/mL | > 258 µM | > 50 µg/mL | > 258 µM | > 50 µg/mL | > 258 µM | > 50 µg/mL | > 258 µM | 
16 | OB1OCC=C1c1ccccc1Cl [Compound 6g] | > 50 µg/mL | > 258 µM | > 50 µg/mL | > 258 µM | > 50 µg/mL | > 258 µM | > 50 µg/mL | > 258 µM | 50 µg/mL | 258 µM | > 50 µg/mL | > 258 µM | > 50 µg/mL | > 258 µM | > 50 µg/mL | > 258 µM | > 50 µg/mL | > 258 µM | 
17 | OB1OCC=C1C1=CCCCC1 [Compound 6y] | > 50 µg/mL | > 305 µM | > 50 µg/mL | > 305 µM | > 50 µg/mL | > 305 µM | > 50 µg/mL | > 305 µM | 21 ± 4 µg/mL | 128 µM | > 50 µg/mL | > 305 µM | > 50 µg/mL | > 305 µM | > 50 µg/mL | > 305 µM | > 50 µg/mL | > 305 µM | 
